Assay results reported in patent publication US20070088064A1, “PHARMACEUTICAL COMPOSITION CONTAINING BICYCLIC TYPE COMPOUNDS” (SmithKline Beecham plc, priority 1992, published 2007).

Tested on: electrically-induced seizures
Assay: Maximal electroshock seizure (MES) threshold test
Type: in vivo
Details: 10 mg/kg p.o., mice
Protocol: The maximal electroshock seizure (MES) threshold test in rodents is particularly sensitive for detecting potential anticonvulsant properties^1. In this model, anticonvulsant agents elevate the threshold to electrically—induced seizures whilst proconvulsants lower the seizure threshold.
Mice (male, Charles River, U.K. CD-1 strain, 25-30 g) are randomly assigned to groups of 10-20 and dosed orally or intraperitoneally at a dose volume of 10 ml/kg with various doses of compound (0.3-300 mg/kg) or vehicle. Mice are then subjected at 30 or 60 min post dose to a single electroshock (0.1 sec, 50 Hz, sine wave form) administered via corneal electrodes. The mean current and standard error required to induce a tonic seizure in 50% (CC50) of the mice in a particular treatment group is determined by the ‘up and down’ method of Dixon and Mood (1948)^2. Stastical comparisons between vehicle—and drug—treated groups are made using the method of Litchfield and Wilcoxon (1949)^3.
In control animals the CC50 is usually 14-18 mA. […] If a tonic convulsion does occur, then the current is decreased, and so on until all the animals in the group have been tested.
The percentage increase or decrease in CC50 for each group compared to the control is calculated. […]

`CC(=O)c1ccc2c(c1)[C@H](NC(=O)c1ccc(F)cc1)[C@H](O)C(C)(C)O2` (relative stereo) [Example 3, cis-6-Acetyl-4S-(4-fluorobenzoylamino)-3,4-dihydro-2,2-dimethyl-2H-1-benzopyran-3S-ol] was tested, and the “enhanced seizure threshold (percentage increase in CC50 compared to control)” value was 84%.
`CCc1ccc2c(c1)[C@H](NC(=O)c1ccc(F)cc1)[C@H](O)C(C)(C)O2` (relative stereo) [Example 7, cis-6-Ethyl-4S-(4-fluorobenzoylamino)-3,4-dihydro-2,2-dimethyl-2H-1-benzopyran-3S-ol] was tested, and the “enhanced seizure threshold (percentage increase in CC50 compared to control)” value was 105%.
